In patent US9556229B2, “Modification of peptides using a bis(thioether)arylbridge approach” (priority 2012, dated 2017):
Starred links: 1 amine or outer side, 2 acyl side, 3 side chain; linkers in the order of their positions; H or OH if unused. Positions of bridges follow the written chain, without caps; N, C: chain ends. Non-standard residues stand in square brackets, D forms with d. Residues, ends and D or L forms follow the SMILES beside them. ξ: configuration not given here. *: point of attachment. Phe(F5) = N[C@@H](Cc1c(F)c(F)c(F)c(F)c1F)C(=O)O; Pro(4R-Bn) = O=C(O)[C@@H]1C[C@@H](Cc2ccccc2)CN1; Chlorambucil = O=C(CCCc1ccc(N(CCCl)CCCl)cc1)*; Dip = N[C@H](C(=O)O)C(c1ccccc1)c1ccccc1; 1Nal = N[C@@H](Cc1cccc2ccccc12)C(=O)O; 2Nal = N[C@@H](Cc1ccc2ccccc2c1)C(=O)O; oXylylene = c1ccc(C[*:2])c(C[*:1])c1; Tic = O=C(O)[C@@H]1Cc2ccccc2CN1; Cha = N[C@@H](CC1CCCCC1)C(=O)O; Cysteamide = C(CS[*:3])N[*:1]; Phg = N[C@H](C(=O)O)c1ccccc1; Tle = CC(C)(C)[C@H](N)C(=O)O; Nicotinoyl = O=C(c1cccnc1)*; ξDisc = O=C(O)C1NCc2ccccc21; NMeA = CN[C@@H](C)C(=O)O; Ahx = NCCCCCC(=O)O

Legend:
[1] = system: MCF-7 breast cancer cell line; test: Cell viability, MCF-7, PrestoBlue assay; type: cell-based; conditions: NA = not active
Protocol: To test our theory we decided to focus on Smac multimers. First, we synthesized a small library of Smac compounds (see, Tables 3 and 4) varying in position 4 substituents having general structure N-MeAla-Tle-4-(trans-Bn)-Pro-Xaa-NHCH2CH2—SH (SEQ ID NO:38), which were tested in vitro using MDA-MB-231 and MCF-7 breast cancer cell lines and PrestoBlue™ assay (Invitrogen).

[2] = system: MDA-MB-231 breast cancer cell line
[3] = system: HCT116 colorectal cancer cells

Compound	EC50 [1] [µM]	EC50 [2] [µM]	EC50 [3] [µM]
CN[C@@H](C)C(=O)N[C@H](C(=O)N1C[C@H](Cc2ccccc2)C[C@H]1C(=O)N[C@@H](CC1CCCCC1)C(=O)NCCS)C(C)(C)C [SMAC12, N^MeAla-Tle-(4-Bzl)Pro-Cha-NHCH2CH2SH] (H-[NMeA][Tle][Pro(4R-Bn)][Cha]-Cysteamide; N-terminus assumed)	21.2 ± 2.4	10.1 ± 2.6	
CC(C)C[C@H](NC(=O)[C@H](CCCNC(=N)N)NC(=O)[C@H](CS)NC(=O)[C@H](Cc1c[nH]c2ccccc12)NC(=O)[C@H](Cc1ccc(O)cc1)NC(=O)[C@H](CCCNC(=N)N)NC(=O)[C@H](CS)NC(=O)[C@H](Cc1ccccc1)NC(=O)[C@H](CCCNC(=N)N)NC(=O)c1cccnc1)C(=O)N[C@@H](CCCNC(=N)N)C(=O)N1CCC[C@H]1C(N)=O [ArB15F/GNicr] (Nicotinoyl-RFCRYWCRLRP-NH2)			64.5
CN[C@@H](C)C(=O)N[C@H](C(=O)N1C[C@H](Cc2ccccc2)C[C@H]1C(=O)N[C@H](C(=O)NCCS)C(c1ccccc1)c1ccccc1)C(C)(C)C [SMAC16, N^MeAla-Tle-(4-Bzl)Pro-Dpa-NHCH2CH2SH] (H-[NMeA][Tle][Pro(4R-Bn)][Dip]-Cysteamide; N-terminus assumed)	11.3 ± 1.8	9.4 ± 0.6	
N=C(N)NCCC[C@H](NC(=O)[C@H](Cc1c(F)c(F)c(F)c(F)c1F)NC(=O)[C@H](CCCNC(=N)N)NC(=O)[C@@H](CCCNC(=N)N)NC(=O)CCCCCNC(=O)CCCc1ccc(N(CCCl)CCCl)cc1)C(=O)N[C@@H]1CSCc2ccccc2CSC[C@@H](C(=O)N[C@H](CCCNC(=N)N)C(=O)N[C@@H](CC2CCCCC2)C(=O)N[C@@H](CCCNC(=N)N)C(=O)N2Cc3ccccc3C2C(N)=O)NC(=O)[C@H](Cc2cccc3ccccc23)NC(=O)[C@H](Cc2ccc(O)cc2)NC1=O (stereo partly drawn) [ArB14Co-CLB, CLB-Ahx-Arg-Arg-PhF-Arg-Cys-Tyr-Na1-Cys-Arg-Cha-Arg-DISC] ({Chlorambucil-Ahx}-[dR]R[Phe(F5)]R[dC]Y[1Nal]C[dR][Cha]R[ξDisc]-NH2; linker 5-8 via oXylylene)			7.5 ± 1.1
CN[C@@H](C)C(=O)N[C@H](C(=O)N1C[C@H](Cc2ccccc2)C[C@H]1C(=O)N[C@@H](Cc1ccccc1)C(=O)NCCS)C(C)(C)C [SMAC8, N^MeAla-Tle-(4-Bzl)Pro-Phe-NHCH2CH2SH]	33.3 ± 1.5	34.3 ± 6.7	
CN[C@@H](C)C(=O)N[C@H](C(=O)N1C[C@H](Cc2ccccc2)C[C@H]1C(=O)N[C@H](C(=O)NCCS)c1ccccc1)C(C)(C)C [SMAC1, N^MeAla-Tle-(4-Bzl)Pro-Phg-NHCH2CH2SH] (H-[NMeA][Tle][Pro(4R-Bn)][Phg]-Cysteamide; N-terminus assumed)	31.2 ± 1.4	17.2 ± 6.4	
CN[C@@H](C)C(=O)N[C@H](C(=O)N1C[C@H](Cc2ccccc2)C[C@H]1C(=O)N1Cc2ccccc2C1C(=O)NCCS)C(C)(C)C (stereo partly drawn) [SMAC4, N^MeAla-Tle-(4-Bzl)Pro-Disc-NHCH2CH2SH] (H-[NMeA][Tle][Pro(4R-Bn)][ξDisc]-Cysteamide; N-terminus assumed)	41.6 ± 3.7	47.1 ± 15.9	
CN[C@@H](C)C(=O)N[C@H](C(=O)N1C[C@H](Cc2ccccc2)C[C@H]1C(=O)N[C@@H](Cc1cccc2ccccc12)C(=O)NCCS)C(C)(C)C [SMAC14, N^MeAla-Tle-(4-Bzl)Pro-^1Na1-NHCH2CH2SH] (H-[NMeA][Tle][Pro(4R-Bn)][1Nal]-Cysteamide; N-terminus assumed)	13.4 ± 0.5	4.5 ± 1.1	
CN[C@@H](C)C(=O)N[C@H](C(=O)N1C[C@H](Cc2ccccc2)C[C@H]1C(=O)N[C@@H](Cc1ccc2ccccc2c1)C(=O)NCCS)C(C)(C)C [SMAC15, N^MeAla-Tle-(4-Bzl)Pro-^2Nal-NHCH2CH2SH] (H-[NMeA][Tle][Pro(4R-Bn)][2Nal]-Cysteamide; N-terminus assumed)	10.5 ± 0.6	9.4 ± 0.5	
CN[C@@H](C)C(=O)N[C@H](C(=O)N1C[C@H](Cc2ccccc2)C[C@H]1C(=O)N1Cc2ccccc2C[C@H]1C(=O)NCCS)C(C)(C)C [SMAC11, N^MeAla-Tle-(4-Bzl)Pro-Tic-NHCH2CH2SH] (H-[NMeA][Tle][Pro(4R-Bn)][Tic]-Cysteamide; N-terminus assumed)	5.3 ± 0.6	13.3 ± 1.3	
CN[C@@H](C)C(=O)N[C@H](C(=O)N1C[C@H](Cc2ccccc2)C[C@H]1C(=O)NC[C@H]1CC[C@H](C(=O)NCCS)CC1)C(C)(C)C [SMAC7, N^MeAla-Tle-(4-Bzl)Pro-Amc-NHCH2CH2SH]	86.3 ± 10.5	91.8 ± 16.3	
